We go through one molecule from patent US10568854B2, “Compositions and methods for treating kabuki syndrome and related disorders” (THE JOHNS HOPKINS UNIVERSITY, priority 2014, dated 2020).

“Also recorded” adds a separate entry of the source.

The subject of one experiment is Klf10 expression. In words: Real-time PCR of Kmt2d target gene Klf10 in spleen cells. The class given is in vivo, mouse. Particulars: Kmt2d^+/βGeo mice. Here is the method: Real time PCR: Real-time PCR was performed using Kmt2d-specific probes for exons 20 and 52 (Mm_02600438 and Mm_01717664, respectively) from TaqMan® Gene Expression Assays (Life Technologies, Carlsbad, Calif.). For a comparison of transfection efficiencies for indicator constructs in transient transfection studies, real-time PCR was performed using SYBR Green Real-Time PCR Master Mix (Life Technologies, Carlsbad, Calif.) and primers IND-F-([…]; SEQ ID NO: 5) and IND-R-([…]; SEQ ID NO: 6) that are specific for the H3K4 methylation indicator. For expression analysis for KMT2D target gene KLF10, real-time PCR was performed using Klf10-specific expression assay (Mm00449812_m1) from TaqMan® Gene Expression Assays (Life Technologies, Carlsbad, Calif.).

Experiment [1] has as its system Kmt2d^+/βGeo mice (mouse model of Kabuki syndrome). In words: Morris water maze (Example 1). Format: in vivo. Particulars: 10 mg/kg/day. The text has this: Animals: Kmt2d^+/βGeo mice, also named Mll2Gt^(RRt024)Byg, were acquired from Bay Genomics (University of California). All experimental mice were on a mixed C57BL/6J and 129/SvEv background. Expected Mendelian ratios were observed when heterozygous animals were bred to wild-type. In heterozygous crosses, however, there was uniform embryonic lethality of homozygotes by ED12, the earliest developmental stage assayed. For treatment with AR-42 mice were orally gavaged daily with drug (Selleck Chemicals, Houston, Tex.) solubilized in vehicle (0.5% methylcellulose, 0.1% Tween-80, water) or with vehicle alone. Drug delivery information was kindly provided by Drs. […] For quantification of DCX positive cells, doses of 0, 5, 10 and 25 mg/kg/day were used. […] Maxillary protrusion was evaluated by ten investigators blinded to genotype and they were asked to rate maxillary protrusion on radiographs as either large (2) or small (1). […]
Morris water maze: Mice were placed in a 1.1 meter diameter tank filled with room temperature water dyed with non-toxic white paint. […] Latency to reach the platform was measured during each trial. […] Average number of crossings of the platform's previous location was recorded. […] For all training and probe testing, data was recorded both manually and electronically with ANY-maze software (San Diego Instruments, San Diego, Calif.) when applicable. […]

Turning to `CC(C)[C@H](C(=O)Nc1ccc(C(=O)NO)cc1)c1ccccc1` [AR-42, (S)—N-hydroxy-4-(3-methyl-2-phenylbutanamido)benzamide], in the experiment on Klf10 expression, the “Klf10 expression in spleen cells” value was “normalization of expression of Klf10; also recorded: normalized”. In addition, in experiment [1], the “frequency of platform crossing during probe trial” value was “improved performance for both genotypes; also recorded: normalized”. Moreover, the “escape latency during training, with versus without drug” value in experiment [1] (Kmt2d^+/βGeo animals) is on record as “No significant difference is observed”.
